Like-named read-outs stand apart in the source and are kept apart here.
Key:
Assay in all cases: HotSpot kinase profiling
Type in all cases: biochemical
[1] = molecular target: T1, PKCmu/PRKD1 (Homo sapiens, UniProt Q15139)
T1 construct: purchased Reaction Biology Corp
T1 sequence (Q15139 1-912): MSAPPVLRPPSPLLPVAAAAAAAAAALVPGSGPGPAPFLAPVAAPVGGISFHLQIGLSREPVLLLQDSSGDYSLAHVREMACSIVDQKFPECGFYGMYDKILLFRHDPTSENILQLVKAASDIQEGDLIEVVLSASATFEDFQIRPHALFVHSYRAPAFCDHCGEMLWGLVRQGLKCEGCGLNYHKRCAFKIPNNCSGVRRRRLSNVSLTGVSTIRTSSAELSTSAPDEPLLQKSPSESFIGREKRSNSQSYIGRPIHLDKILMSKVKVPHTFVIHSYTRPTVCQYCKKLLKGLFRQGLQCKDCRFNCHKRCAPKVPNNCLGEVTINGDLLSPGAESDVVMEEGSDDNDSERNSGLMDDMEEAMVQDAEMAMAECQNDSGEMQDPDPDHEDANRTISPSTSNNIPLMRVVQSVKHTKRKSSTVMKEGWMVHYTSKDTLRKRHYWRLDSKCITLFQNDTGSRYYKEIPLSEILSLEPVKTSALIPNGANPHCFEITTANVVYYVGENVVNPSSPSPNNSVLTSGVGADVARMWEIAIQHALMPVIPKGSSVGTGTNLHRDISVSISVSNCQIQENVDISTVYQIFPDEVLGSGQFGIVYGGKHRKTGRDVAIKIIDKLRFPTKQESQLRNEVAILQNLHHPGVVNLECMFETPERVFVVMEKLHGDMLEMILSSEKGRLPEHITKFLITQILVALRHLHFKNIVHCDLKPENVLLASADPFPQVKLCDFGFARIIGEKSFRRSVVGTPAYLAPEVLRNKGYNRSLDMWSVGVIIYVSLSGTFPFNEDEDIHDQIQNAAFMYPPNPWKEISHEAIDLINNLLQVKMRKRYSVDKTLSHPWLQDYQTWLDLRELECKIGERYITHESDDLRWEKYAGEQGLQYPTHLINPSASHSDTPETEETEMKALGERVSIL
Outline: (§1)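 P81 filtration radiometric readout; 2 h incubation at room temperature; 0.1% phosphoric acid wash; DMSO negative control; % inhibition, mean of replicate runs.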

[2] = molecular target: T2, OSR1/OXSR1 (Homo sapiens, UniProt O95747)
T2 construct: purchased Reaction Biology Corp
Outline: as §1

[3] = molecular target: T3, RSK3 (Homo sapiens, UniProt Q15349)
T3 construct: purchased Reaction Biology Corp
Outline: as §1

[4] = molecular target: T4, FLT1/VEGFR1 (Homo sapiens, UniProt P17948)
T4 construct: purchased Reaction Biology Corp
Outline: as §1

[5] = molecular target: T5, TTBK1 (Homo sapiens, UniProt Q5TCY1)
T5 construct: purchased Reaction Biology Corp
Outline: as §1

[6] = molecular target: T6, DDR2 (Homo sapiens, UniProt Q16832)
T6 construct: purchased Reaction Biology Corp
T6 sequence (Q16832 22-855): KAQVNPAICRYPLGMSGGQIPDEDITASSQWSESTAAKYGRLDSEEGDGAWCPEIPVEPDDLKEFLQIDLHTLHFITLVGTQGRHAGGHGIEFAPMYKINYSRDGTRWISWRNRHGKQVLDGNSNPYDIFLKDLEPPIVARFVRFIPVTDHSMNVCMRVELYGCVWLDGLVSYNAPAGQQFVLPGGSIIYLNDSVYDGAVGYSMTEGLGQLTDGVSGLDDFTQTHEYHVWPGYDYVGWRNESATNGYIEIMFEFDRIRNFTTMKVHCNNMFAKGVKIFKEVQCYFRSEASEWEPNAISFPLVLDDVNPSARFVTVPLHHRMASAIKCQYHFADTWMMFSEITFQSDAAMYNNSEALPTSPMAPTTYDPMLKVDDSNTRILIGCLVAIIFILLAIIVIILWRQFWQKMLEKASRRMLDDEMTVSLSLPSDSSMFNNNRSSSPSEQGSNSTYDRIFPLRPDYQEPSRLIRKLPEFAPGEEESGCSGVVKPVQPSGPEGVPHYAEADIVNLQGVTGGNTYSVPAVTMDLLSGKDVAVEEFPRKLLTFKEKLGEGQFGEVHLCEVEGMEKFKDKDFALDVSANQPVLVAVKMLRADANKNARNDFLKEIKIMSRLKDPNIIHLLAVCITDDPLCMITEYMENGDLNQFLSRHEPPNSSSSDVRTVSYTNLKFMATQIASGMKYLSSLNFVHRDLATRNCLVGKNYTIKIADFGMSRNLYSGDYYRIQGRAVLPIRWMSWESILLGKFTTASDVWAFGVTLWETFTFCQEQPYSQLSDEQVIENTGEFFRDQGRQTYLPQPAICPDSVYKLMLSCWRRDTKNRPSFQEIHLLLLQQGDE
Outline: as §1

[7] = read-out: % Enzyme Activity (relative to DMSO controls) Run 1
[8] = read-out: % Enzyme Activity (relative to DMSO controls) Run 2

T5 sequence (Q5TCY1 whole entry): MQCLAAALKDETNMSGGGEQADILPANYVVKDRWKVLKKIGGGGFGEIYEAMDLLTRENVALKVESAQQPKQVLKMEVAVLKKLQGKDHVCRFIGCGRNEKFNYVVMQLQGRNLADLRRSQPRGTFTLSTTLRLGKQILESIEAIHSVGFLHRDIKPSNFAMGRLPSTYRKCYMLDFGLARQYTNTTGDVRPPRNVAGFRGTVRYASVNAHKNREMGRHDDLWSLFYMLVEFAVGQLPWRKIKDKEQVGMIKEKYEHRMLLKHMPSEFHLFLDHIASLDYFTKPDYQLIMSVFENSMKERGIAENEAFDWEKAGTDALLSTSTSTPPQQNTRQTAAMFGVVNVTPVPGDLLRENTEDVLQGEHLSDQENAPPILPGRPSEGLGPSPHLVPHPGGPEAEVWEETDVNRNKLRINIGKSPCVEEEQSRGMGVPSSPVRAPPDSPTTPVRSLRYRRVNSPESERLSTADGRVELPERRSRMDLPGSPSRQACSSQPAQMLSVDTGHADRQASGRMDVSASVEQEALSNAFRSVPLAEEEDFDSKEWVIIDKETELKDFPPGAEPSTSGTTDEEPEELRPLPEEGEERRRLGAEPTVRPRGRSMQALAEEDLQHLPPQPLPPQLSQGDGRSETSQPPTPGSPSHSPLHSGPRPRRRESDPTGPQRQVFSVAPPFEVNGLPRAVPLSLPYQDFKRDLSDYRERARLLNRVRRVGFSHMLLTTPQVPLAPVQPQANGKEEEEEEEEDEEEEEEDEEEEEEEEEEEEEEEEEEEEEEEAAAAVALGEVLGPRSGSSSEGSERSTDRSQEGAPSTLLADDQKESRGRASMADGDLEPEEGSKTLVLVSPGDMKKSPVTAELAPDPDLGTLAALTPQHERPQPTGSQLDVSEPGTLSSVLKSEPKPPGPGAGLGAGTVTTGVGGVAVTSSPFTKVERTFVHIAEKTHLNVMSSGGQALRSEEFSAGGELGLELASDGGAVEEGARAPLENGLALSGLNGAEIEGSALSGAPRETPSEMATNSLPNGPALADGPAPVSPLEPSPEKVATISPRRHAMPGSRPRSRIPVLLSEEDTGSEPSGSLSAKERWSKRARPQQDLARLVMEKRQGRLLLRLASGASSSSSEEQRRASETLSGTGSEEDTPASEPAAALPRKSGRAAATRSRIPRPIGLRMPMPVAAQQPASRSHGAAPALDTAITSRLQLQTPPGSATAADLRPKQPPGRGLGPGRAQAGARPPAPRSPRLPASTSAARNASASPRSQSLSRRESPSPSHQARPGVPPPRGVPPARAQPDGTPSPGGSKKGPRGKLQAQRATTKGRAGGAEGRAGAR
T3 sequence (Q15349 whole entry): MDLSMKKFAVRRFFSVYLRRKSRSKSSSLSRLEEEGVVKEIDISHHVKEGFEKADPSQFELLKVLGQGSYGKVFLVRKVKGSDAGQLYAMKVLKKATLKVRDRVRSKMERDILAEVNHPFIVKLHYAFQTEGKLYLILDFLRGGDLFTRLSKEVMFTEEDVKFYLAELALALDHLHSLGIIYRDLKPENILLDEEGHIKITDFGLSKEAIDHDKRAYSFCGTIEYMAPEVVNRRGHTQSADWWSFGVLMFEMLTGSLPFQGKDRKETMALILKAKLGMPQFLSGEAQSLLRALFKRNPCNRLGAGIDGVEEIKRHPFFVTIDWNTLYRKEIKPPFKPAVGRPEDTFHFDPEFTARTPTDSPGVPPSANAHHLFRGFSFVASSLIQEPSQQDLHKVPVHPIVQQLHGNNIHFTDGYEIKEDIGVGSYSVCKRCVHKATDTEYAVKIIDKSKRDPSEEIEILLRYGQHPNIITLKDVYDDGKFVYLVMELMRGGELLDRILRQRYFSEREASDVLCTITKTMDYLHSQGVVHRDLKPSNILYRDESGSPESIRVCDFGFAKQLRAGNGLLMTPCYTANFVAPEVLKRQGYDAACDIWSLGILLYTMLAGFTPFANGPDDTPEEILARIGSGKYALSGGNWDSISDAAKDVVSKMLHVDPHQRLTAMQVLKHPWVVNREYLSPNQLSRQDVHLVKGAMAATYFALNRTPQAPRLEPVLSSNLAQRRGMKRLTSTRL
T4 sequence (P17948 27-1338): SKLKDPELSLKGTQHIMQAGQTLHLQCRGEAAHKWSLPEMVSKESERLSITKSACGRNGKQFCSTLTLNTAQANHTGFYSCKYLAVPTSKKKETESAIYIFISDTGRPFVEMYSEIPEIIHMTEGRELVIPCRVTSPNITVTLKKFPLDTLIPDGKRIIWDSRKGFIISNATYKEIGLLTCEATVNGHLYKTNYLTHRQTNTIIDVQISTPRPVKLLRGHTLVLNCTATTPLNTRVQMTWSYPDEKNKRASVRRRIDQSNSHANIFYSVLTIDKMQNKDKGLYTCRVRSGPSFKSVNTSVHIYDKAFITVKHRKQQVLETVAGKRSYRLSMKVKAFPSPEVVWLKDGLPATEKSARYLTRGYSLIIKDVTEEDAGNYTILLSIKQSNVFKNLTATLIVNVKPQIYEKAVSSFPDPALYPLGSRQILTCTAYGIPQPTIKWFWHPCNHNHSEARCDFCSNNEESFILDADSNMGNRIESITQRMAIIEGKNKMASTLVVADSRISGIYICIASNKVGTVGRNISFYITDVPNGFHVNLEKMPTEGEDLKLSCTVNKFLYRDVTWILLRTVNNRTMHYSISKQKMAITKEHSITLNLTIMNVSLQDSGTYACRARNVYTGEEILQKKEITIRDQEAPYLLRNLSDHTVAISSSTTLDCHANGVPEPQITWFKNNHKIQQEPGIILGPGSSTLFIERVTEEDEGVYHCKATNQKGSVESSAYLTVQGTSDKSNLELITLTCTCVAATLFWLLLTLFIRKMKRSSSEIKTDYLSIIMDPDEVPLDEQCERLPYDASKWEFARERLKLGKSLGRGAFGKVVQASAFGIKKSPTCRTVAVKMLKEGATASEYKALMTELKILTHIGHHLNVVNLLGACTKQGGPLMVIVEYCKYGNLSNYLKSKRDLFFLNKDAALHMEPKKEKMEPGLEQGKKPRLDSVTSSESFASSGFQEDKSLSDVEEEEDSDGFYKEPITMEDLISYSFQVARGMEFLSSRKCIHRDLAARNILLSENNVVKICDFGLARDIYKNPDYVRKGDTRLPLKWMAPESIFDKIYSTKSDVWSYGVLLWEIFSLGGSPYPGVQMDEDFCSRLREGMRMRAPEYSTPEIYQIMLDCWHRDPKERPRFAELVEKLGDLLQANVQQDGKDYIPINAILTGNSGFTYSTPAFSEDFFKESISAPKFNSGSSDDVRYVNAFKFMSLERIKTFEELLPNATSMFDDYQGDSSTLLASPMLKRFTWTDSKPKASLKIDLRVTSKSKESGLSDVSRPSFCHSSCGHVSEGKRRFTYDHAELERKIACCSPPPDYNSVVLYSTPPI
T2 sequence (O95747 whole entry): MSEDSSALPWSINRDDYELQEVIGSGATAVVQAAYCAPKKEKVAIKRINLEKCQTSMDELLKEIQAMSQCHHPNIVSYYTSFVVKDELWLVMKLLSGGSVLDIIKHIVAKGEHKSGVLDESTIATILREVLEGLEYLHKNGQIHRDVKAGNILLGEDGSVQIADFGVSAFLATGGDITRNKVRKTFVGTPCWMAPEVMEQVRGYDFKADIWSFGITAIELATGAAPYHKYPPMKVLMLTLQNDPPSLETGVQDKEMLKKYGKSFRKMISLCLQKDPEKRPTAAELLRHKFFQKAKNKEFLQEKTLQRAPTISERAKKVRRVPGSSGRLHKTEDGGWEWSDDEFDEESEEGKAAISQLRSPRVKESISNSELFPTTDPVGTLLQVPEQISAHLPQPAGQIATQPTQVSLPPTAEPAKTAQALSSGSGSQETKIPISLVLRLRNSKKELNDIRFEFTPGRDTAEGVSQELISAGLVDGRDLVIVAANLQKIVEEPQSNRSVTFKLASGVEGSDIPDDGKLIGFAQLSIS

In the case of `C=CC(=O)Nc1cccc(Nc2nc(Nc3ccc(OCCOC)c(F)c3)ncc2F)c1` [Compound 2], the inhibition at 3 µM [1] is reported as 24.6%, the remaining activity at 3 µM [1, 7] is reported as 74.8% and the remaining activity at 3 µM [1, 8] is reported as 75.8%. It also gave an inhibition at 3 µM [2] of -19.2%, a remaining activity at 3 µM [2, 7] of 117% and a remaining activity at 3 µM [2, 8] of 122%. For the same compound, the inhibition at 3 µM [3] was 14.5%, the remaining activity at 3 µM [3, 7] was 85.8% and the remaining activity at 3 µM [3, 8] was 85.2%. The inhibition at 3 µM [4] was 18.6%, the remaining activity at 3 µM [4, 7] was 83.6% and the remaining activity at 3 µM [4, 8] was 79.2%. For the same compound, the inhibition at 3 µM [5] was -1.65%, the remaining activity at 3 µM [5, 7] was 101% and the remaining activity at 3 µM [5, 8] was 102%. The inhibition at 3 µM [6] was -3.87%, the remaining activity at 3 µM [6, 7] was 103% and the remaining activity at 3 µM [6, 8] was 105%.
